The source of these data is publication PMC10763615, “Identification and engineering of potent cyclic peptides with selective or promiscuous binding through biochemical profiling and bioinformatic data analysis” (RSC Chemical Biology, 2023).

Like-named read-outs stand apart in the source and are kept apart here. Bounds are passed on as bounds.

The target of assay [1] is T1, FGF-R4 ECD (Homo sapiens, UniProt P22455).
T1 construct: DNA constructs for the extracellular domain (ECD) of human FGF-; HPC4 (C); made in house; host or cells: HEK 293-6E
T1 sequence (P22455 22-369 limits assumed): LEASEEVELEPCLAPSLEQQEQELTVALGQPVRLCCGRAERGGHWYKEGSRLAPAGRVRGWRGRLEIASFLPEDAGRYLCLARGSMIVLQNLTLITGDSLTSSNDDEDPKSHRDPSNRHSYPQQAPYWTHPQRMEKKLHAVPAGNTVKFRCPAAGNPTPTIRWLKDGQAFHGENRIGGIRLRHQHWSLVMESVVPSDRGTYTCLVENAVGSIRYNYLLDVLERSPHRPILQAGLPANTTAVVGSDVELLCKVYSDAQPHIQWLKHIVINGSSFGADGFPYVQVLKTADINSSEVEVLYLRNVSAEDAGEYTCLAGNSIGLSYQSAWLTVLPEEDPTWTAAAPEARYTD
Kind of assay: multi-concentration BLI of purified peptides. It is filed as binding. The essentials: (§1)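 Biolayer interferometry with biotinylated FGF-R ECD on streptavidin biosensors in PBS pH 7.4, 0.05% Tween-20, 0.01% BSA. Multi-concentration: purified peptide dilution series fitted to a multi-point KD model.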

In assay [2] the target is T1, FGF-R4 ECD. Kind of assay: single concentration BLI of crude peptides. Format: binding. The settings on record: read-out: KD (4). The essentials: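 BLI, streptavidin sensors loaded with biotinylated receptor ECD. Single-point: ~1 μM crude peptide, PBS pH7.4/0.05% Tween-20/0.01% BSA; association then dissociation in buffer. KD corrected for UPLC-CAD-determined concentration.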

Assay [3] deals with T2, FGFR4/KLB (Fc-fused human FGF-R4 with beta-klotho) (Homo sapiens, UniProt P22455).
T2 sequence (P22455 22-369 limits assumed): T1 sequence (P22455 22-369 limits assumed)
Description: AlphaScreen FGF21 competitive binding assay. On the technique in general: In Alpha technology, singlet oxygen from a donor bead excites a nearby acceptor bead.
Description: Alphascreen binding assay
(§2) The competitive binding assay was carried out according to the methods detailed in Hansen. et al using
(§3) AlphaScreen.3 All reagents and samples were prepared in assay buffer: 40mM Hepes, 140mM NaCl, 1mM
(§4) CaCl2, 0,05% Tween20, pH=7.5, 0.1% BSA. In brief, recombinant human beta-klotho (R&D Systems) was
(§5) preincubated for 60 min with the ectodomain, either Fc-fused human FGF-R1alpha(IIIc), FGF-R3alpha(IIIc)
(§6) or FGF-R4 (R&D Systems), and the mixture was added to the test peptides in OptiPlate™ (PerkinElmer).
(§7) Biotinylated FGF21 and heparin were further added to each well. AlphaScreen bead mix (1:1 mix of Protein
(§8) A acceptor beads/ streptavidin-coated donor beads, PerkinElmer) were added to each well incubated
(§9) overnight at RT in the dark, and measured on a plate reader (Envision). Assays were carried out in triplicates
(§10) with concentrations ranging from 3, 10, 30, 100, 300 ,1000 and 3000 nM of peptide. No peptide control
(§11) (media only) was used as a negative control, and unlabeled FGF21 and FGF1 as positive control.
(§12) competing with biotinylated natural FGF21 ligand.

The target of assay [4] is T3, FGF-R1C ECD (Homo sapiens, UniProt P11362).
T3 sequence (P11362 22-376 limits assumed): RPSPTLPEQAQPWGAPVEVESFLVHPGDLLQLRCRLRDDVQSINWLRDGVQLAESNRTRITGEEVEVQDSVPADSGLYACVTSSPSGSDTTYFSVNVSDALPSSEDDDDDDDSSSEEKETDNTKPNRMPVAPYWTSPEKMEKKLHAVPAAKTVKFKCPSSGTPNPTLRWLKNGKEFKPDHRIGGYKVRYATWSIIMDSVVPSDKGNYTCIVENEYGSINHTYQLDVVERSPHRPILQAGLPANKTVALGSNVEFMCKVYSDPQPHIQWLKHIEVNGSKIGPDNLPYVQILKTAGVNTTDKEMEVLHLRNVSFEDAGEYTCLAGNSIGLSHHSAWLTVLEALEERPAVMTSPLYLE
Kind of assay: biochemical. The essentials:
as §1

Assay [5] has as its target T4, FGF-R3C ECD (Homo sapiens, UniProt P22607).
T4 sequence (P22607 23-375 limits assumed): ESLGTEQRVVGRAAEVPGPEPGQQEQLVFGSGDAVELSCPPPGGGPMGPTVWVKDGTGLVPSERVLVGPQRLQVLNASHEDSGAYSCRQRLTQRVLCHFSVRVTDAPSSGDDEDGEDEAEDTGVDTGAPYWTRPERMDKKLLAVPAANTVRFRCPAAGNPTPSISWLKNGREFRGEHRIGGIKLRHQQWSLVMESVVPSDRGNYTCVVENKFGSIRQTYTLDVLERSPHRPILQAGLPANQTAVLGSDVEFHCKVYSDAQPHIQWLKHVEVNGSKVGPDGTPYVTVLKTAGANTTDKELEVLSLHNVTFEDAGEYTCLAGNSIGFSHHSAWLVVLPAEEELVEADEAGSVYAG
Description: biochemical. The gist of the method: as §1

In assay [6] the target is T3, FGF-R1C ECD. Description: biochemical. Format: binding. Also noted: DNA constructs for the extracellular domain (ECD) of human FGF-; HPC4 (C); made in house; host or cells: HEK 293-6E. The gist of the method: as §1
The target in assay [7] is T4, FGF-R3C ECD. Description: biochemical. Set-up: DNA constructs for the extracellular domain (ECD) of human FGF-; HPC4 (C); made in house; host or cells: HEK 293-6E. It is filed as binding. The gist of the method: as §1
Assay [8] has as its target T5, FGFR1c/KLB (Fc-fused human FGF-R1alpha(IIIc) with beta-klotho) (Homo sapiens, UniProt P11362).
T5 sequence (P11362 22-376 limits assumed): T3 sequence (P11362 22-376 limits assumed)
Description: AlphaScreen FGF21 competitive binding assay. The settings on record: read-out: IC50 values for controls (FGF-R1C); positive controls, Alphascreen vs biotinylated FGF21.
Description: Alphascreen binding assay
as §2, §3, §4, §5, §6, §7, §8, §9, §10, §11, §12

The target in assay [9] is T6, FGFR3c/BKL (Fc-fused human FGF-R3alpha(IIIc) with beta-klotho) (Homo sapiens, UniProt P22607).
T6 sequence (P22607 23-375 limits assumed): T4 sequence (P22607 23-375 limits assumed)
Kind of assay: AlphaScreen FGF21 competitive binding assay. The settings on record: read-out: IC50 values for controls (FGF-R3C); positive controls, Alphascreen vs biotinylated FGF21.
Description: Alphascreen binding assay
as §2, §3, §4, §5, §6, §7, §8, §9, §10, §11, §12

Where [10] appears, read: crude NNK peptides, single concentration BLI (Table S3).
Setting [11] is: purified trimer-18 library peptides.
Where [12] appears, read: crude T18 selection 1 (1:1:1) peptides, single concentration BLI (Table S4).

`CSCC[C@@H]1NC(=O)[C@H](CC(N)=O)NC(=O)[C@H](CO)NC(=O)[C@@H](NC(=O)[C@@H](N)CCSC)CSSC[C@@H](C(=O)NCC(=O)N[C@@H](CO)C(=O)NCC(=O)N[C@@H](CO)C(=O)N[C@@H](CC(=O)O)C(=O)N[C@@H](Cc2ccc(O)cc2)C(=O)N[C@@H](CCCCN)C(=O)N[C@@H](CC(=O)O)C(=O)N[C@@H](CC(=O)O)C(=O)N[C@@H](CC(=O)O)C(=O)N[C@@H](CC(=O)O)C(=O)N[C@@H](CCCCN)C(N)=O)NC(=O)[C@H](C)NC(=O)[C@H](Cc2c[nH]c3ccccc23)NC(=O)[C@H](Cc2c[nH]c3ccccc23)NC(=O)[C@H](CCCNC(=N)N)NC(=O)[C@H](CC(N)=O)NC(=O)[C@H](C)NC(=O)[C@H](CC(C)C)NC(=O)[C@H](CCCCN)NC(=O)[C@H](Cc2c[nH]c3ccccc23)NC1=O` [1C.3]: the Kd in [1] (purified NNK library peptides) was above 1000 nM; in [2] (setting [10]) it was above 10000 nM. The IC50 in [3] was above 1000 nM.

Regarding `CSCC[C@H](NC(C)=O)C(=O)N[C@H]1CSSC[C@@H](C(=O)NCC(=O)N[C@@H](CO)C(=O)NCC(=O)N[C@@H](CO)C(=O)N[C@@H](CC(=O)O)C(=O)N[C@@H](Cc2ccc(O)cc2)C(=O)N[C@@H](CCCCN)C(=O)N[C@@H](CC(=O)O)C(=O)N[C@@H](CC(=O)O)C(=O)N[C@@H](CC(=O)O)C(=O)N[C@@H](CC(=O)O)C(=O)N[C@@H](CCCCN)C(N)=O)NC(=O)[C@H](C(C)C)NC(=O)[C@H](Cc2c[nH]c3ccccc23)NC(=O)[C@H](Cc2c[nH]c3ccccc23)NC(=O)[C@H](CC(C)C)NC(=O)[C@H](CCCCN)NC(=O)[C@H](Cc2c[nH]c3ccccc23)NC(=O)[C@H](CCCNC(=N)N)NC(=O)[C@H](Cc2ccc(O)cc2)NC(=O)[C@H](C)NC(=O)[C@H](CC(=O)O)NC(=O)[C@H](CO)NC(=O)[C@H](CCC(=O)O)NC1=O` [4.12], the Kd in [4] is above 1000 nM; in assay [5], above 1000 nM; in [1] (setting [11]), 15 nM; in [2] (setting [12]), 10 nM; in [6] it was 1570 nM; in [7], above 10 µM.

As to `CSCC[C@H](NC(C)=O)C(=O)N[C@H]1CSSC[C@@H](C(=O)NCC(=O)N[C@@H](CO)C(=O)NCC(=O)N[C@@H](CO)C(=O)N[C@@H](CC(=O)O)C(=O)N[C@@H](Cc2ccc(O)cc2)C(=O)N[C@@H](CCCCN)C(=O)N[C@@H](CC(=O)O)C(=O)N[C@@H](CC(=O)O)C(=O)N[C@@H](CC(=O)O)C(=O)N[C@@H](CC(=O)O)C(=O)N[C@@H](CCCCN)C(N)=O)NC(=O)[C@H](Cc2c[nH]cn2)NC(=O)[C@H](CCCNC(=N)N)NC(=O)[C@H](CC(C)C)NC(=O)[C@H](C(C)C)NC(=O)[C@H](CCCCN)NC(=O)[C@H](Cc2ccc(O)cc2)NC(=O)[C@H](CC(C)C)NC(=O)[C@H](CC(C)C)NC(=O)[C@H](C(C)C)NC(=O)[C@H](CC(N)=O)NC1=O` [4.11], the Kd in [4] was above 1000 nM; in assay [5] it was 115 nM; in assay [1] (setting [11]), 543 nM; in [2] (setting [12]), 11 nM; in [6], above 10000 nM; in [7], above 10 µM.

As for `CC[C@H](C)[C@@H]1NC(=O)[C@H](CCCCN)NC(=O)[C@H](Cc2ccc(O)cc2)NC(=O)[C@H]([C@@H](C)CC)NC(=O)[C@H](CO)NC(=O)[C@H](C(C)C)NC(=O)[C@H](CC(C)C)NC(=O)[C@@H](NC(=O)[C@H](CCSC)NC(C)=O)CSSC[C@@H](C(=O)NCC(=O)N[C@@H](CO)C(=O)NCC(=O)N[C@@H](CO)C(=O)N[C@@H](CC(=O)O)C(=O)N[C@@H](Cc2ccc(O)cc2)C(=O)N[C@@H](CCCCN)C(=O)N[C@@H](CC(=O)O)C(=O)N[C@@H](CC(=O)O)C(=O)N[C@@H](CC(=O)O)C(=O)N[C@@H](CC(=O)O)C(=O)N[C@@H](CCCCN)C(N)=O)NC(=O)[C@H]([C@@H](C)O)NC(=O)[C@H](CCCNC(=N)N)NC(=O)[C@H](CCSC)NC1=O` [4.1], the Kd is above 1000 nM in assay [4]; above 1000 nM in [5]; above 1000 nM in assay [1] (purified NNK library peptides); 193 nM in assay [2] (setting [10]); above 10000 nM in assay [6]; 6.12 µM in [7].

Regarding `CSCC[C@H](NC(C)=O)C(=O)N[C@H]1CSSC[C@@H](C(=O)NCC(=O)N[C@@H](CO)C(=O)NCC(=O)N[C@@H](CO)C(=O)N[C@@H](CCC(=O)O)C(=O)N[C@@H](CCC(=O)O)C(=O)NCC(=O)N[C@@H](CO)C(=O)NCC(=O)N[C@@H](CO)C(=O)N[C@@H](CC(=O)O)C(=O)N[C@@H](Cc2ccc(O)cc2)C(=O)N[C@@H](CCCCN)C(=O)N[C@@H](CC(=O)O)C(=O)N[C@@H](CC(=O)O)C(=O)N[C@@H](CC(=O)O)C(=O)N[C@@H](CC(=O)O)C(=O)N[C@@H](CCCCN)C(N)=O)NC(=O)[C@H](CCCCN)NC(=O)[C@H](CCCCN)NC(=O)[C@H](Cc2c[nH]c3ccccc23)NC(=O)[C@H](CC(C)C)NC(=O)[C@H](CC(C)C)NC(=O)[C@H](Cc2ccc(O)cc2)NC(=O)[C@H](Cc2ccc(O)cc2)NC(=O)[C@H](Cc2ccc(O)cc2)NC(=O)[C@H](CC(C)C)NC(=O)[C@H](Cc2c[nH]cn2)NC(=O)[C@H](CCCCN)NC1=O` [4.10], the Kd in assay [4] (read-out: R1C KD, purified trimer-18 library peptides, multi-concentration BLI) was above 1000 nM; in assay [5] (read-out: R3C KD, purified trimer-18 library peptides, multi-concentration BLI) it was 519 nM; in [1] (setting [11]) it was 2 nM; in assay [2] (setting [12]), 1 nM; in [6] (read-out: KD (1C)), 1030 nM; in assay [7] (read-out: KD(3C)), 0.928 µM.

With “FGF1: FGF1 used as positive control [reference compound]”, the IC50 in assay [8] turned out to be 4 nM; in [9], 3 nM; in assay [3] (read-out: IC50 values for controls (FGF-R4), positive controls, Alphascreen vs biotinylated FGF21), 7 nM.

Take `CSCC[C@H](NC(C)=O)C(=O)N[C@H]1CSSC[C@@H](C(=O)NCC(=O)N[C@@H](CO)C(=O)NCC(=O)N[C@@H](CO)C(=O)N[C@@H](CC(=O)O)C(=O)N[C@@H](Cc2ccc(O)cc2)C(=O)N[C@@H](CCCCN)C(=O)N[C@@H](CC(=O)O)C(=O)N[C@@H](CC(=O)O)C(=O)N[C@@H](CC(=O)O)C(=O)N[C@@H](CC(=O)O)C(=O)N[C@@H](CCCCN)C(N)=O)NC(=O)[C@H](C)NC(=O)[C@H](Cc2c[nH]c3ccccc23)NC(=O)[C@H](Cc2ccc(O)cc2)NC(=O)[C@H](CCCNC(=N)N)NC(=O)[C@H](Cc2ccc(O)cc2)NC(=O)[C@H](CO)NC(=O)[C@H](Cc2ccc(O)cc2)NC(=O)[C@H](Cc2ccccc2)NC(=O)[C@H](CC(=O)O)NC(=O)[C@H](CC(=O)O)NC(=O)[C@H](CC(C)C)NC(=O)[C@H](Cc2ccc(O)cc2)NC1=O` [4.16]: the dissociation constant (Kd) is 15 nM in assay [4]; 37 nM in assay [5]; above 1000 nM in assay [1] (setting [11]); above 10000 nM in [2] (setting [12]); 54 nM in assay [6]; above 10 µM in [7]. Besides, the “R4 KD (nM)” value in [1] (setting [11]) is reported as “no observable binding”.

What is called Kd is the concentration at which binding is half-saturated. By IC50 is commonly meant the concentration at which inhibition is half-maximal.
